# In patent publication US8470889B2 (TRT Pharma Inc., priority 2008, dated 2013):
# pIC50: −log10 of the molar value. Where two headings read alike, the source gives them in different places.
# Tests used:
# MCF-7 cells = assay: Growth inhibition, MCF-7 breast cancer cells; format: cell-based; details: for IC50: Table 10, read-out: Cytotoxicity, IC50 (μM) MCF-7
# Text: (§1) All samples were in triplicate.
# MDA-MB-231 cells = assay: Growth inhibition, MDA-MB-231 breast cancer cells; format: cell-based; details: for IC50: Table 10, read-out: Cytotoxicity, IC50 (μM) MDA-M B231
# Text: as §1
# H-1975 cells = assay: Growth inhibition, H-1975 lung cancer cells; format: cell-based; details: for IC50: Table 10, read-out: Cytotoxicity, IC50 (μM) H-1975
# Text: as §1
# H874Y mutated AR = target: T1, H874Y mutated AR (Homo sapiens, UniProt P10275, H875Y); assay: Luciferase assay for AR transactivation, H874Y AR, PC-3 cells; format: cell-based; details: 0.1 nM DHT; for suppression of DHT-induced transactivation of H874Y AR: test compound 0.1-1 μM, PC-3 cells; for Antiandrogenic activity evaluated by luciferase assay in PC-3 cells H874Y: test compound 1 μM
# T1 sequence (P10275 1-920 H875Y): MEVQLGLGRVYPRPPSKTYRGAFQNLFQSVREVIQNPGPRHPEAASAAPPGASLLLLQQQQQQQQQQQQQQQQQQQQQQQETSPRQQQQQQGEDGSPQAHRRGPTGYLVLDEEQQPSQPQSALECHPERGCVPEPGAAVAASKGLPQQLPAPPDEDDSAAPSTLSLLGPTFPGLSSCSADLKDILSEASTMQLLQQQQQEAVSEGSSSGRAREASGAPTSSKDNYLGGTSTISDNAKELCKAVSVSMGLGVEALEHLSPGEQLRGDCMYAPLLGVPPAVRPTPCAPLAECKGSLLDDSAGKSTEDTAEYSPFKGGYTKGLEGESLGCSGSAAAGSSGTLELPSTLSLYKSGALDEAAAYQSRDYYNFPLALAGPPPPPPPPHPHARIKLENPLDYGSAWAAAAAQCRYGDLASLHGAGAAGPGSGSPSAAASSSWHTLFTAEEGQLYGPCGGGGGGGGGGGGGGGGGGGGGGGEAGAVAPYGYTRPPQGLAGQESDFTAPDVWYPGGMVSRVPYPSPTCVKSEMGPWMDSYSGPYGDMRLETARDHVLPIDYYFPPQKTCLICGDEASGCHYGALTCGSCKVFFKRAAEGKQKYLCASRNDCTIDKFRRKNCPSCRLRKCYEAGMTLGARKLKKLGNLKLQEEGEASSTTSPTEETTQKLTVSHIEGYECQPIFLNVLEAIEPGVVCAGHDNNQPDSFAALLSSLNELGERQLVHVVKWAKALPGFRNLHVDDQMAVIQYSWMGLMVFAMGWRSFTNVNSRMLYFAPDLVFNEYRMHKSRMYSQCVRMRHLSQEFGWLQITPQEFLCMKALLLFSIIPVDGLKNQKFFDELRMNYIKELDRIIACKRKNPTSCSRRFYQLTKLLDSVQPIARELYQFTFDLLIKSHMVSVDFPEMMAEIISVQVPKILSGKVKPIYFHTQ
# Description: PC-3 cells were transiently transfected with pCMV-MMTV-Luc, Renilla null luciferase and AR expressing plasmids. The cells were treated with 0.1 nM DHT with and without test compound for 24 hr. Relative luciferase activity was determined by dual luciferase assay kit (Promega), standardized to Renilla luciferase control and normalized to 0.1 nM DHT without test compound (100%).
# After 16 h, the cells were treated with 0.1 nM of DHT and test compounds at the designated concentration. After further 24 h, the cells were lysed in 100 μL/well passive lysis buffer, and 20 μL of the cell lysates was used for detection of the luciferase activity using Dual Luciferase Assay System (Promega). All experiments were run in triplicate. Relative luciferase activity is determined as the ratio of inducible firefly luciferase luminescence divided by the luminescence of the renilla luciferase control normalized to 0.1 nM DHT without test compounds.
# The potency of antagonistic activity: ++>+.
# MDA PCa 2b cells [1] = system: MDA PCa 2b cells;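 further: MDA PCa 2b prostate cancer cells in BRFF-HPC1 with 20% FBS, exposed to compounds for 72 h, viable-cell MTT formazan read as absorbance at 600 nm, 0.5% DMSO vehicle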
# Description: (§2) MDA PCa 2b was seeded at the same density in medium BRFF-HPC1 (Athena Enzyme Systems, Baltimore, Md., USA) supplemented with 20% FBS. After overnight incubation, the medium was changed to a fresh medium containing different concentrations of test compounds diluted from stock DMSO solution. The final concentration of DMSO is 0.5%. After 72 h of incubation with test compounds, 20 μL of 3-(4,5-dimethyl thiazol-2-yl)-2,5-diphenyltetrazolium bromide (MTT) solution (5 mg/mL in PBS) were added to each well and incubated further for 2 h. Next, the supernatant was aspirated and the MTT formazan formed by metabolically viable cells was dissolved in 100 μL of isopropanol. The plates were mixed for 30 min, and the absorbance was measured at 600 nm on a plate reader (FLUOstar OPTIMA, BMG LabTech). All samples were in triplicate. The IC50 values were determined from dose-response curves by nonlinear regression using PRISM v5.00 (GraphPad Software Inc, La Jolla, Calif., USA).
# (§3) The in vitro cytotoxicity of 1-20 were evaluated by MTT assays in a panel of prostate cancer cell lines, including LNCaP, MDA PCa 2b, 22Rv1, C4-2B and PC-3.
# 22Rv1 cells [2] = system: 22Rv1 cells
# C4-2B cells [3] = system: C4-2B cells;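 further: cells treated with a dilution series for 72 h, then MTT added and absorbance read at 600 nm, IC50 fitted from dose-response curves by nonlinear regression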
# Description: as §2, §3
# PC-3 cells [4] = system: PC-3 cells
# Description: as §2, §3
# PC-3 cells [5] = assay: MTT cell growth inhibition, PC-3
# Description: as §2, §3
# 22Rv1 cells [6] = assay: MTT cell growth inhibition, 22Rv1; details: read-out: Cellular IC50 (μM) 22Rv1; Table 9; MTT
# C4-2B cells [7] = assay: MTT cell growth inhibition, C4-2B; details: read-out: Cellular IC50 (μM) C4-2B, Table 9;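 further: cells treated with a dilution series for 72 h, then MTT added and absorbance read at 600 nm, IC50 fitted from dose-response curves by nonlinear regression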
# Description: as §2, §3
# MDA PCa 2b cells [8] = assay: MTT cell growth inhibition, MDA PCa 2b; details: MTT;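 further: MDA PCa 2b prostate cancer cells in BRFF-HPC1 with 20% FBS, exposed to compounds for 72 h, viable-cell MTT formazan read as absorbance at 600 nm, 0.5% DMSO vehicle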
# Description: as §2, §3
# [9] = target: T2, hormone-binding pocket of the AR-LBD (Rattus norvegicus, UniProt P15207); assay: AR fluorescence polarization (FP) competitor assay; details: FIG. 8
# T2 construct: purchased Invitrogen P3018
# T2 sequence (P15207 651-882 limits assumed): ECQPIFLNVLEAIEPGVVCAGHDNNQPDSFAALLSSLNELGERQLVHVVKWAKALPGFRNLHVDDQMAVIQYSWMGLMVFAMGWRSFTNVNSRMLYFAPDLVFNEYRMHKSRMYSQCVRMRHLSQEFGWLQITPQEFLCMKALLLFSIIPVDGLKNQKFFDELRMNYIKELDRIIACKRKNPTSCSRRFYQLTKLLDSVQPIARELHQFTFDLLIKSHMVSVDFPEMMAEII
# Text: The fluorescence polarization was used as a read-out and normalized to that of DMSO vehicle. Results are reported as average±s.d. of experiments performed in triplicates. DHT is included as a positive control.
# [10] = read-out: Cellular IC50 (μM) PC-3, Table 9
smiles,measurement,setting,value
CC1=C(/C=C/C(=O)/C=C/c2cccc(C(F)(F)F)c2)C(C)(C)CCC1O (racemic) [Compound B25],effect in MCF-7 breast cancer cell line,MCF-7 cells,effective
same,IC50,MCF-7 cells,5.2 µM
same,effect in MDA-MB-231 breast cancer cell line,MDA-MB-231 cells,effective
same,IC50,MDA-MB-231 cells,4.4 µM
same,effect in H-1975 lung cancer cell line,H-1975 cells,effective
same,IC50,H-1975 cells,6.3 µM
same,suppression of DHT-induced transactivation of H874Y AR,H874Y mutated AR,dose-dependent activity
same,pIC50,MDA PCa 2b cells [1],5.59
same,pIC50,22Rv1 cells [2],5.77
same,pIC50,C4-2B cells [3],5.85
same,pIC50,PC-3 cells [4],5.46
CC1(C)CCC(O)C=C1/C=C/C(=O)/C=C/c1csc2ccccc12 (centres unmarked) [Compound B92],suppression of DHT-induced transactivation of H874Y AR,H874Y mutated AR,pure antagonists
same,Antiandrogenic activity evaluated by luciferase assay in PC-3 cells H874Y,H874Y mutated AR,+
same,IC50,PC-3 cells [5]; [10],3.3 µM
same,IC50,"PC-3 cells [5]; read-out: Cytotoxicity in prostate cancer cell lines IC50 (μM), PC-3, Part D table, 72 hours, I.A. = Inactive",2 µM
same,IC50,22Rv1 cells [6],1.5 µM
same,IC50,C4-2B cells [7],1.1 µM
same,IC50,"MDA PCa 2b cells [8]; read-out: Cytotoxicity in prostate cancer cell lines IC50 (μM), PCa-2b, Part D table, 72 hours",0.87 µM
CC1(C)CCC(O)C=C1/C=C/C(=O)/C=C/c1cnc2ccccc2c1 (centres unmarked) [Compound B95],effect in MCF-7 breast cancer cell line,MCF-7 cells,effective
same,IC50,"MCF-7 cells; Homo sapiens, MCF7",5.5 µM
same,effect in MDA-MB-231 breast cancer cell line,MDA-MB-231 cells,effective
same,IC50,"MDA-MB-231 cells; Homo sapiens, MDA-MB-231",3.6 µM
same,effect in H-1975 lung cancer cell line,H-1975 cells,effective
same,IC50,"H-1975 cells; Homo sapiens, NCI-H1975",4.8 µM
same,suppression of DHT-induced transactivation of H874Y AR,H874Y mutated AR,effective
same,Antiandrogenic activity evaluated by luciferase assay in PC-3 cells H874Y,H874Y mutated AR,++
same,competitive binding to the hormone-binding pocket of the AR-LBD,[9],competitive binding
same,pIC50,"MDA PCa 2b cells [1]; human, 72 h",5.89
same,pIC50,"22Rv1 cells [2]; human, 72 h",5.96
same,pIC50,"C4-2B cells [3]; human, 72 h",6.06
same,pIC50,"PC-3 cells [4]; human, 72 h",5.66
same,IC50,PC-3 cells [5]; [10],2.3 µM
same,IC50,22Rv1 cells [6],1.2 µM
same,IC50,C4-2B cells [7],1.4 µM
same,IC50,"MDA PCa 2b cells [8]; read-out: Cellular IC50 (μM) PCa 2b, Table 9",1.3 µM
